Measurements: ChEMBL document CHEMBL1151595, “Palladium-catalyzed synthesis of C3-substituted 3-deoxymorphines” (Bioorg Med Chem Lett, 1994)
pIC50: −log10 of the molar value.

Key:
Format in all cases: tissue-based
Mu-type opioid receptor = Mu-type opioid receptor (Cavia porcellus, UniProt P97266); assay: Binding to mu opioid receptor by using [3H]DAMGO as radioligand in guinea pig brain minus cerebellum
[1] = target: Kappa-type opioid receptor (Cavia porcellus, UniProt P41144); assay: Binding to kappa opioid receptor by using [3H]U-69593 as radioligand in guinea pig cerebellum
Sequence of Kappa-type opioid receptor (P41144 whole entry): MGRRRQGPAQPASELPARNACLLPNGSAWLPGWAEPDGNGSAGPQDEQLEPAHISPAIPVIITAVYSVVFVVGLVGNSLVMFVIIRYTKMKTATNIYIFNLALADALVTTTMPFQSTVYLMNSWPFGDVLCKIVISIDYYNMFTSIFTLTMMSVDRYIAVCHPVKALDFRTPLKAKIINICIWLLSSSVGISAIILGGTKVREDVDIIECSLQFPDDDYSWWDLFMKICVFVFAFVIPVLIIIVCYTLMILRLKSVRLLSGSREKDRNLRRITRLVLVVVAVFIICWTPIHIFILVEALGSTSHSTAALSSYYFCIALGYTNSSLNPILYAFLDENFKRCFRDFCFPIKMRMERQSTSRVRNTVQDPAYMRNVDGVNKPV

[2] = target: Mu-type opioid receptor (Cavia porcellus) (UniProt P97266); assay: Binding to mu opioid receptor by using [3H]DAMGO as radioligand in guinea pig brain minus cerebellum at 10 uM
Sequence of Mu-type opioid receptor (Cavia porcellus) (P97266 whole entry): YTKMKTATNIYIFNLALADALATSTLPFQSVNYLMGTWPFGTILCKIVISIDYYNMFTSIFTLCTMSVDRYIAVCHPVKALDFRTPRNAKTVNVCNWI

Sequence of Mu-type opioid receptor (P97266 whole entry): as above

SMILES: CC(=O)c1ccc2c3c1O[C@H]1[C@@H](O)C=C[C@H]4[C@@H](C2)N(C)CC[C@@]341
- pIC50 (Mu-type opioid receptor): 6.19
- pIC50 [1]: 5.29

SMILES: CN1CC[C@]23c4c5ccc(-c6ccco6)c4O[C@H]2[C@@H](O)C=C[C@H]3[C@H]1C5
- pIC50 (Mu-type opioid receptor): 5.59
- pIC50 [1]: 5.02

SMILES: CN1CC[C@]23c4c5ccc(-c6cccs6)c4O[C@H]2[C@@H](O)C=C[C@H]3[C@H]1C5
- pIC50 [1]: 4.60
- inhibition [2]: 49%

SMILES: CN1CC[C@]23c4c5ccc(-c6ccoc6)c4O[C@H]2[C@@H](O)C=C[C@H]3[C@H]1C5
- pIC50 (Mu-type opioid receptor): 6.70
- pIC50 [1]: 6.04

SMILES: CN1CC[C@]23c4c5ccc(-c6ccccc6)c4O[C@H]2[C@@H](O)C=C[C@H]3[C@H]1C5
- pIC50 [1]: 4.12
- inhibition [2]: 43%

SMILES: CN1CC[C@]23c4c5cccc4O[C@H]2[C@@H](O)C=C[C@H]3[C@H]1C5
- pIC50 (Mu-type opioid receptor): 6.28
- pIC50 [1]: 4.96

SMILES: CN1CC[C@]23c4c5ccc(-c6cc7ccccc7s6)c4O[C@H]2[C@@H](O)C=C[C@H]3[C@H]1C5
- pIC50 [1]: 3.90
- inhibition [2]: 41%

SMILES: Cc1ccc2c3c1O[C@H]1[C@@H](O)C=C[C@H]4[C@@H](C2)N(C)CC[C@@]341
- pIC50 (Mu-type opioid receptor): 5.35
- pIC50 [1]: 4.44

SMILES: CN1CC[C@]23c4c5ccc(-c6ccsc6)c4O[C@H]2[C@@H](O)C=C[C@H]3[C@H]1C5
- pIC50 (Mu-type opioid receptor): 5.48
- pIC50 [1]: 4.82

SMILES: CN1CC[C@]23c4c5ccc(OS(=O)(=O)C(F)(F)F)c4O[C@H]2[C@@H](O)C=C[C@H]3[C@H]1C5
- pIC50 (Mu-type opioid receptor): 5.19
- pIC50 [1]: 3.95
